Experimental data as given in patent publication US9511080B2, “Okadaella gastrococcus and cancer” (Okada Medical Services Pty Ltd, priority 2009, dated 2016).

Tests used:
[1] = tested on: Okadaella gastrococcus (Og) isolates; test: In vitro antibiotic sensitivity of Og (E-tests and diffusion disc tests); type: cell-based; details: for Og can be treated using antibiotic (in vitro assays): 25 Og isolates from gastric mucosal biopsy specimens
Experimental: Twenty-five Og isolates were obtained from gastric mucosal biopsy specimens. E-tests and diffusion disc tests were performed under microaerophilic condition (Oxygen 5%, CO2 10%, and Nitrogen 85%) utilizing. 5% horse blood agar, except metronidazole which was tested under anaerobic condition. Antibiotic sensitivity was read 72 hours after incubation. Randomly selected isolates were also examined under TEM to confirm the ultrastructure of Og. Results: Og was sensitive to various antibiotics, in particular to the penicillins, the cephalosporins, the quinolones, and chloramphenicol.

[2] = tested on: intestinal metaplasia of the gastric mucosa; details: co-administered with Hp eradication therapy (Walker, 2003); cited from earlier work

SMILES | Og can be treated using antibiotic (in vitro assays) [1] | Effect on intestinal metaplasia of the gastric mucosa [2] | Antibiotic sensitivity of Og ([1]; E-tests and diffusion disc tests, microaerophilic, 5% horse blood agar, read 72 hours after incubation)
CC1(C)S[C@@H]2[C@H](NC(=O)[C@H](N)c3ccccc3)C(=O)N2[C@H]1C(=O)O [ampicillin] | can be treated | – | –
O=C1O[C@H]([C@@H](O)CO)C(O)=C1O [ascorbic acid] | – | significantly resolved the intestinal metaplasia | –
CO/N=C(\C(=O)N[C@@H]1C(=O)N2C(C(=O)O)=C(COC(C)=O)CS[C@H]12)c1csc(N)n1 [cefotaxime] | can be treated | – | –
O=C(N[C@H](CO)[C@H](O)c1ccc([N+](=O)[O-])cc1)C(Cl)Cl [chloramphenicol] | can be treated | – | sensitive
O=C(O)c1cn(C2CC2)c2cc(N3CCNCC3)c(F)cc2c1=O [ciprofloxacin] | can be treated | – | –
COc1c(N2CCNC(C)C2)c(F)cc2c(=O)c(C(=O)O)cn(C3CC3)c12 (stereo not shown) [gatifloxacin] | can be treated | – | –
